Test [1] deals with T1, Interferon-induced, double-stranded RNA-activated protein kinase (Homo sapiens, UniProt P19525). Nature of the test: Inhibition of PKR (unknown origin).
In test [2] the target is T1, Interferon-induced, double-stranded RNA-activated protein kinase. The test is described as follows: Inhibition of GST tagged human PKR incubated for 10 mins in presence of ATP by Kinase Glo luminescence assay. A general note: In Kinase-Glo more light means more ATP remaining.

T1 sequence (P19525 whole entry): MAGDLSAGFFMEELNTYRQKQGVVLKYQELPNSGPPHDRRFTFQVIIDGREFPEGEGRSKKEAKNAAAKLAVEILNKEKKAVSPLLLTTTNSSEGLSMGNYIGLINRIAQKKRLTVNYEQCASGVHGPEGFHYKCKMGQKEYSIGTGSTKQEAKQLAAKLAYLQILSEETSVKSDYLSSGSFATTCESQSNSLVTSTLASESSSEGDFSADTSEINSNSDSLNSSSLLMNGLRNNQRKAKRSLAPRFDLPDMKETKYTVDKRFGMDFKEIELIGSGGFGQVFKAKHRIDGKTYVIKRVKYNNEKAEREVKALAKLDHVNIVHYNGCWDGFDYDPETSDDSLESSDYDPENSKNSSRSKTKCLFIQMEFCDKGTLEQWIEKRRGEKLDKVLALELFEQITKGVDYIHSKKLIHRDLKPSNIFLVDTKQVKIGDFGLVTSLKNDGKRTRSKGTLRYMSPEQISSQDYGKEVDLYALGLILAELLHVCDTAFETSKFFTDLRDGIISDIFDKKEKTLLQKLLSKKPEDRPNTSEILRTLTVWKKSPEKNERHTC

Broadly, the IC50 is the point on the concentration scale where inhibition reaches its midpoint. In test [1], `CCn1cc(-c2ccc3c(c2)CCN3C(=O)Cc2cccc(OC(F)(F)F)c2)c2c(N)ncnc21` gave an IC50 of 116 nM.

Regarding `COCCO[C@H]1CC[C@H](n2nc(-c3ccc(Nc4nc5cc(Cl)cc(F)c5o4)cc3)c3c(N)ncnc32)CC1`, the IC50 in test [1] stood at 364 nM.

Turning to `Nc1ncc(-c2nnn(CCCO)n2)cc1-c1cc2cc(NC(=O)Nc3ccc(Cl)c(C(F)(F)F)c3)ccc2o1`, in test [2], the IC50 stood at 475 nM.

`CC(=O)Cn1cc(-c2cnc(N)c3c(-c4ccc(NC(=O)Nc5cccc(C)c5)cc4)csc23)cn1` returned a concentration for half-maximal inhibition (IC50) in test [1] of 306 nM. As a reminder, the EC50 is the concentration giving half of the maximal effect. Compound `CCc1ccc(OC(F)(F)F)cc1CC(=O)N1CCc2cc(-c3cn(CC)c4ncnc(N)c34)ccc21` displayed an EC50 in test [1] of 37 nM. Take `O=C(Nc1cc(-c2ccccc2)[nH]n1)c1ccc(N2CCNC2=O)cc1`: it took 3880 nM to reach half-maximal inhibition in test [1] (IC50). In test [1], `CCc1ccc(OC(F)(F)F)cc1CC(=O)N1CCc2cc(-c3nn(CC)c4ncnc(N)c34)ccc21` had an EC50 of 95 nM.

Source of the values: ChEMBL document CHEMBL5223142, “Identification of potent and selective inhibitors of PKR via virtual screening and traditional design” (Bioorg Med Chem Lett, 2023).
